Read-outs that look alike come from different tables or passages of the source.
Columns and labels:
Format in all cases: cell-based
[1] = target: T1, IKZF2 (Homo sapiens, UniProt Q96SW2+Q9UKS7); assay: Jurkat IKZF2 degradation (flow cytometry); set-up: endogenous in cells; settings: Jurkat cells, overnight incubation; for DC50: flow cytometry, normalized to DMSO control, read-out: IKZF2 Degradation EC50; for Dmax: maximum degradation at the highest concentration tested
Method: (§1) Jurkat cell line (ATCC, Clone E6-1), highly expresses IKZF2 and lends it an appropriate system to screen degradation along with a functional readout. Jurkat cells were grown to 80% confluency in TC medium (RPMI containing glutamax, 10% FBS, 1% NEAA, and 1% Pen/Strep Glutamin in tissue culture flasks.
(§2) The cells were spun down at 400 g for 5 mins and counted. 100 K cells per well were added to a 96-well plate. The compounds were introduced starting at 10 μM and dilutions were made 1:10 for each compound. 100 μL of compound was added to each well for a 12-point titration. The cells were incubated at 37° C. with 5% CO2 overnight.
Cells were stained with appropriate surface and intracellular antibodies and acquired by flow cytometry and analysed for degradation. […]
Target sequence in this assay (Q9UKS7 whole entry): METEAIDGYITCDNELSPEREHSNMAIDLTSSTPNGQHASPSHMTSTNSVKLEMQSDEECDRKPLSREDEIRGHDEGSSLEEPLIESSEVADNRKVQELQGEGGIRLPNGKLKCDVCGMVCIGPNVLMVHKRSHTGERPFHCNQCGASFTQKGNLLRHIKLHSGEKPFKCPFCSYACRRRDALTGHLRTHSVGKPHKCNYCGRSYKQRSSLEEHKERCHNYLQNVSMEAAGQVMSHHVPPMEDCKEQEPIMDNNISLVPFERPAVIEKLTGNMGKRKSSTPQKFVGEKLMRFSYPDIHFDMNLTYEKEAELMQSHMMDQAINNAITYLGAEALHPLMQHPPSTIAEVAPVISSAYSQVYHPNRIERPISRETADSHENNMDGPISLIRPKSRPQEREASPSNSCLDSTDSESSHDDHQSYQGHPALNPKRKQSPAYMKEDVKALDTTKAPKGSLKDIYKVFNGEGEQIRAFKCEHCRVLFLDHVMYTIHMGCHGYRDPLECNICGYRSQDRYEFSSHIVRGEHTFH
Target sequence in this assay (Q96SW2 whole entry): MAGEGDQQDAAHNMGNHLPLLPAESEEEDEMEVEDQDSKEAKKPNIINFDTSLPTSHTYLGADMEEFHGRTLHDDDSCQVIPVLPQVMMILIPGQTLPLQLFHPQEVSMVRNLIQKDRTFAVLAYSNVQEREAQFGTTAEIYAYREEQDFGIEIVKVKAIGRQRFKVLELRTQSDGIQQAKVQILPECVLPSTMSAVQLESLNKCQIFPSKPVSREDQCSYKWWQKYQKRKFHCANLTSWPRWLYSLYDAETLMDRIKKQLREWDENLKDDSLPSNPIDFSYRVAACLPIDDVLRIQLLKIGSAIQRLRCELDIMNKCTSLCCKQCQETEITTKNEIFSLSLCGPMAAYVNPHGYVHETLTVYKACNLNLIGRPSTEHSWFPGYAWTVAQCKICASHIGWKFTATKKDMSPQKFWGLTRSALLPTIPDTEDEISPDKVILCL
Target sequence in this assay (Q16531 whole entry partner): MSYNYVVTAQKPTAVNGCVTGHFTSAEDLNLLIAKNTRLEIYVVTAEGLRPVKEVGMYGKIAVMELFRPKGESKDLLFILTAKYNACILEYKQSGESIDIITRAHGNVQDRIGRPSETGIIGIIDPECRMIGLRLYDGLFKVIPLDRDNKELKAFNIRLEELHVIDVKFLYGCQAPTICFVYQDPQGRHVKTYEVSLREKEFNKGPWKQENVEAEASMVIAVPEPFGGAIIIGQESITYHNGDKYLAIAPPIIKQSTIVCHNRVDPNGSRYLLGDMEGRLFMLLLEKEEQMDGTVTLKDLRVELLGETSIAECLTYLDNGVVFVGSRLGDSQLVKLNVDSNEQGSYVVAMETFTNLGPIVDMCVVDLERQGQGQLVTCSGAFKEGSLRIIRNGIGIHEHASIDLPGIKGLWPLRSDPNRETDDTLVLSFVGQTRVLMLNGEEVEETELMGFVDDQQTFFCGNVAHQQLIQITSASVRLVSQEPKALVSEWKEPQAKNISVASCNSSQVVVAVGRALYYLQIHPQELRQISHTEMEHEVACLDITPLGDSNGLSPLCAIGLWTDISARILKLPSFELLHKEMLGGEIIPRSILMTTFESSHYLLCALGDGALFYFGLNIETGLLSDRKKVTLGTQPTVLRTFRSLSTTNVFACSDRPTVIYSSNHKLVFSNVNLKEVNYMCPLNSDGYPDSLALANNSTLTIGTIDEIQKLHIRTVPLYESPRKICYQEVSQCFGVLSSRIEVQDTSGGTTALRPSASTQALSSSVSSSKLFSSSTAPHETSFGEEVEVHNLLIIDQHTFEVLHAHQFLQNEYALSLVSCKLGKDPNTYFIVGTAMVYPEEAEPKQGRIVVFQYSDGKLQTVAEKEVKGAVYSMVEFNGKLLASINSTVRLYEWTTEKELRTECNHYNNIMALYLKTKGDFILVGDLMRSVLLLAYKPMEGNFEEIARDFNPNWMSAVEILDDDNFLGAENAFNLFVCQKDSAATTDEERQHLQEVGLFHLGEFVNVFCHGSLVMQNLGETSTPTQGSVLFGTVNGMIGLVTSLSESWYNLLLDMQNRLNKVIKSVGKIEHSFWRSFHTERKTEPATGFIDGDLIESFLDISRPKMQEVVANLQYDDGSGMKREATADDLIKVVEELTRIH

[2] = target: T1, IKZF2; assay: HEK293 HiBiT in vitro degradation of IKZF2; set-up: expressed in transfected cells; settings: for Dmax: HEK293, HEK293 HiBiT; for DC50: 18-24 hr incubation, normalized to DMSO control, read-out: IKZF2 EC50
How it was run: (§3)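 Stable HEK293 reporter pools, each with one integrated tet-inducible copy of a HiBiT-tagged target, were induced with doxycycline overnight at 37 °C. After 18-24 h with compound dilution series, Nano-Glo lysis and luminescence yielded EC50 and Dmax values.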
Target sequence in this assay (Q9UKS7 1-500 isoform Q9UKS7-2): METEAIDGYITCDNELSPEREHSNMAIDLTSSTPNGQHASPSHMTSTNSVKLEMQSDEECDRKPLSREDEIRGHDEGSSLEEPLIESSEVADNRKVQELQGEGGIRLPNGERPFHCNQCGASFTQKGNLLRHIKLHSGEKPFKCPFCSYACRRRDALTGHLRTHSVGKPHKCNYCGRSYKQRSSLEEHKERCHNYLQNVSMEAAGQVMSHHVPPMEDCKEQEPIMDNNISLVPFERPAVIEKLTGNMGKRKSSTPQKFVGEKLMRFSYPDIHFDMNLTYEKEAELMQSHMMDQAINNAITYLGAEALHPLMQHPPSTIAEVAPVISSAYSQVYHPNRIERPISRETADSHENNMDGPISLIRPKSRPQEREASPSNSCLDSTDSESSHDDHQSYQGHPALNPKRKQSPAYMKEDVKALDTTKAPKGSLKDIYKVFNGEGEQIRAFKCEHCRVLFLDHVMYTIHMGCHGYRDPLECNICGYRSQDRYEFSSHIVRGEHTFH
Target sequence in this assay (Q96SW2 whole entry): as the sequence (Q96SW2 whole entry) above
Target sequence in this assay (Q16531 whole entry partner): as the sequence (Q16531 whole entry partner) above

[3] = target: T2, SALL4 (Homo sapiens, UniProt Q96SW2+Q9UJQ4); assay: HEK293 HiBiT in vitro degradation of SALL4; settings: 18-24 hr incubation, normalized to DMSO control, read-out: SALL4 EC50
T2 construct: expressed in transfected cells
T2 sequence (Q9UJQ4 whole entry): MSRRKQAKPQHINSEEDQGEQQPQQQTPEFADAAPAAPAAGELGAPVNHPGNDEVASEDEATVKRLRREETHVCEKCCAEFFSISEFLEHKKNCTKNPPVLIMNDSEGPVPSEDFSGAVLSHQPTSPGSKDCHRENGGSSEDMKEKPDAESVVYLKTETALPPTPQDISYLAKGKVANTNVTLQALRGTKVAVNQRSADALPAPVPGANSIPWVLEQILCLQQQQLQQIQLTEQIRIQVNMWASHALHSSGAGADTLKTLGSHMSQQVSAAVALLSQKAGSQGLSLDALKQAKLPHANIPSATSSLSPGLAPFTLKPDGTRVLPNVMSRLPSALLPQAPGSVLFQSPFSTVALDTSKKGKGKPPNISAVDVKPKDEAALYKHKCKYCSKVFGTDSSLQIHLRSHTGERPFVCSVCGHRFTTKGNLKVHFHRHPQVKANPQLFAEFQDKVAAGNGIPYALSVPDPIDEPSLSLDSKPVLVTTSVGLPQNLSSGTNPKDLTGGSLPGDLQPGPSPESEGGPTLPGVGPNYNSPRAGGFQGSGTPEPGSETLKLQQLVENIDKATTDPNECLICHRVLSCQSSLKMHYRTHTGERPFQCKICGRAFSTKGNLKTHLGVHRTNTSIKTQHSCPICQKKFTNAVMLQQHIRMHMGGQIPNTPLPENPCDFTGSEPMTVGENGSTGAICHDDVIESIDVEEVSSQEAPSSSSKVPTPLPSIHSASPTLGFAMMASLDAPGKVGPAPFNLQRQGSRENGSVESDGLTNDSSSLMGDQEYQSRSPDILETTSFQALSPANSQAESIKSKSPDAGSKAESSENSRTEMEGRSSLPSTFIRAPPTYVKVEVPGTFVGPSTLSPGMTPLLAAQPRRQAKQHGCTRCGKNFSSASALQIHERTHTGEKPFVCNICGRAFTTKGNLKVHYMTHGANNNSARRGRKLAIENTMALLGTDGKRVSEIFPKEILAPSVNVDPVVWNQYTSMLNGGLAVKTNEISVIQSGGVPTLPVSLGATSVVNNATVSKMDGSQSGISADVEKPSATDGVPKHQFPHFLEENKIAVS
T2 sequence (Q96SW2 whole entry): as the sequence (Q96SW2 whole entry) above
T2 sequence (Q16531 whole entry partner): as the sequence (Q16531 whole entry partner) above
Method: In vitro degradation of IKZF1, IKZF2, and SALL4 was measured using HiBiT protein tagging and detection technology (Promega).
HiBit technology was used to develop the quantitative assays to measure the cellular IKZFs level by tagging an 11 amino acid HiBit peptides […] to the protein of interest. Reporter plasmids were generated by fusing a linker sequence ([…]) followed by the HiBit tag at the C-terminus of IKZF1, IKZF2, and SALL4. The fusion fragments were subsequently cloned into pcDNA5 pcDNA™5/FRT/TO plasmids (Thermo Fisher, cat #V652020) downstream of the tetracycline operator. The resulting plasmids were co-transfected with pOG44 Flp-Recombinase Expression Vector (Thermo Fisher, cat #V600520) into Flp-In™ T-REx HEK293 line (Thermo Fisher, cat #R78077) and a stable cell pool was selected by adding 100 µg/ml of Hygromycin (Thermo Fisher, cat #10687010). The reporter cell enabled Tet-On inducible reporter expression from a single copy of the integrated gene.
On Day 1, Cells were grown to ˜80% confluency in tissue culture medium (DMEM Glutamax (Gibco10569), 10% Tet free FBS (Takara 631106), and PenStrep Glutamin (Gibco 10378)) in tissue culture flasks. Doxycycline was then added to a final concentration of […] to induce reporter expression at 37° C. overnight.
On Day 2, 125 nL of serially-diluted solution of testing compounds were dispensed into 384-well white solid assay plates via ECHO acoustic liquid handler. Cells were lifted by 0.25% Trypsin (Gibco 25200) then pelleted by centrifugation (Beckman Avanti J-E) at 500×g for 5 min. Cell pellets were resuspended in TC medium at the concentration of 3e5/mL and 25 μL of cell suspension were added into each well of compound-spotted plates. The plates were returned to a 37° C. incubator overnight (18-24 hr).
On Day 3, assay plates were removed from the tissue culture incubator and 25 μL of Nano-Glo lytic detection system (Promega, cat #N3030) was added to each well. Plates were incubated at r.t. for 3 min with shaking, and luminescence was read using an Envision reader (Perkin Elmer).
To assess the IKZF1, IKZF2, and SALL4 degrader potential of exemplified compounds of this disclosure and certain Reference Compounds EC50 and Dmax values were determined for the compounds of Examples 1 to 383 and Reference Compounds A-1, B-1, B-2, B-3, B-4, and C-1 in the HiBiT assays. Asterisks (*) indicate examples for which the data shown represents an average of n≥3.

[4] = target: T1, IKZF2; assay: HEK293 IKZF2 degradation kinetics (HiBiT, timepoints 1-24 h); set-up: expressed in transfected cells; settings: for kinact: HEK293, IKZF2, timepoints 1, 2, 3, 4.5 and 24 hour, read-out: Maximum degradation rate Kinact (converted)
Method: The assay technology and principles for evaluating IKZF2 degradation kinetics in HEK293 cells was identical to the HEK293 degradation assay as described above. Additional details are briefly described below.
On Day 1, Cells were grown and induced the same as described above. On Days 2 and 3, compounds for testing were dispensed via ECHO and cells were lifted and plated into compound-spotted assay plates as above. Plates were returned to the 37° C. incubator until addition of Nano-Glo lytic reagent at 1, 2, 3, 4.5, and 24 hour timepoints. At these timepoints, plates were read on Envision reader as above.
All raw data was normalized to DMSO control (final concentration: 0.5%) wells as POC and plotted out as a function of time to generate the degradation rate constant (K) value. The maximum degradation rate (Kinact) was determined by plotting the K value as a function of concentration for each compound tested. Kinact values are shown in Table 25 and the degradation rate plots as well as timecourse of degradation are shown for select compounds in FIG. 1A, FIG. 1B, FIG. 2A and FIG. 2B.
Target sequence in this assay (Q9UKS7 1-500 isoform Q9UKS7-2): as the sequence (Q9UKS7 1-500 isoform Q9UKS7-2) above
Target sequence in this assay (Q96SW2 whole entry): as the sequence (Q96SW2 whole entry) above
Target sequence in this assay (Q16531 whole entry partner): as the sequence (Q16531 whole entry partner) above

[5] = target: T3, IKZF1 (Homo sapiens, UniProt Q13422+Q96SW2); assay: HEK293 HiBiT in vitro degradation of IKZF1; settings: for Dmax: HEK293, HEK293 HiBiT, maximum degradation at the highest concentration tested; for DC50: HEK293 HiBiT, 18-24 hr incubation, normalized to DMSO control, read-out: IKZF1 EC50
T3 construct: expressed in transfected cells
T3 sequence (Q13422 whole entry): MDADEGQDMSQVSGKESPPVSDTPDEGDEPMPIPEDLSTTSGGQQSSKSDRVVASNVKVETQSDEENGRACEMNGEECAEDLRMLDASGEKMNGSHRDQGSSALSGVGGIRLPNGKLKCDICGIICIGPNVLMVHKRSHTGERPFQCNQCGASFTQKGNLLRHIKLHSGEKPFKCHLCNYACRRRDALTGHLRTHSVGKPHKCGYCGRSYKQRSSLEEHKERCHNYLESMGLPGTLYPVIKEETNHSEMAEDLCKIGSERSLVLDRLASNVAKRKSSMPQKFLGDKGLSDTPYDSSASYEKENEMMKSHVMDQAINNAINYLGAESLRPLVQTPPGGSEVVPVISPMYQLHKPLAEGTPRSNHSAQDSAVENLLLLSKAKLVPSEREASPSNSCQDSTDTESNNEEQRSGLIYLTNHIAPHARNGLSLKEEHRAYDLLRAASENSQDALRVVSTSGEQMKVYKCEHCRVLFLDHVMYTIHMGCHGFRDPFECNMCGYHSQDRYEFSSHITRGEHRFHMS
T3 sequence (Q96SW2 whole entry): as the sequence (Q96SW2 whole entry) above
T3 sequence (Q16531 whole entry partner): as the sequence (Q16531 whole entry partner) above
How it was run: as §3

[6] = test system: IL-2 production in Jurkat cells; assay: Jurkat IL-2 functional assay (ELISA of supernatants); settings: Homo sapiens; for maximal fold induction: Jurkat, top of the curve fit; for EC50: overnight incubation
Method: as §1, §2
The following day, supernatants were collected for a functional readout using ELISA. The supernatants were diluted 1:2 and added to appropriate Human IL-2 plates for IL-2 functional readout.
The top of the curve fit for each compound is reported as the IL-2 ‘fold increase over DMSO control.’

[7] = target: T1, IKZF2; assay: Human whole blood IKZF2 degradation (flow cytometry, CD4/CD25/Foxp3+ Treg cells); set-up: endogenous in cells; settings: for Dmax / DC50: 24 hrs incubation, IKZF2 MFI in CD4/CD25/Foxp3+ Treg cells, flow cytometry; for DC50: read-out: IKZF2 EC50
How it was run: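 Fresh healthy-donor human whole blood stimulated with CD3/CD28 activator and serially diluted compound for 24 hrs at 37° C. IKZF2 MFI in CD4/CD25/Foxp3+ Tregs (IKZF1 MFI in CD4+ T cells) measured by flow cytometry after RBC lysis, fixation, permeabilization. EC50 and Dmax versus DMSO wells.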
Target sequence in this assay (Q9UKS7 whole entry): as the sequence (Q9UKS7 whole entry) above
Target sequence in this assay (Q96SW2 whole entry): as the sequence (Q96SW2 whole entry) above
Target sequence in this assay (Q16531 whole entry partner): as the sequence (Q16531 whole entry partner) above

[8] = maximum degradation at the highest concentration tested
[9] = ELISA of supernatants, read-out: IL-2 Production Fold increase over DMSO control
[10] = read-out: increase in IL-2 production relative to DMSO control

DC50 [1] [nM] | Dmax [1] [%] | Dmax [2, 8] [%] | DC50 ([2]; HEK293 HiBiT) [nM] | DC50 [3] [nM] | kinact [4] [s⁻¹] | Dmax [5] [%] | DC50 [5] [nM] | EC50 ([6]; ELISA of supernatants) [nM] | Dmax [7] [%] | DC50 [7] [nM] | speed of IKZF2 degradation compared with Reference Compounds A-1, B-3, B-4, C-1 ([4]; HEK293) | IKZF2 degradation potency compared with Reference Compound B-4 ([7]; 24 hrs) | IKZF2 Dmax ([2]; HEK293 HiBiT, maximum degradation at the highest concentration tested) [%] | SMILES | maximal fold induction [6, 9] | maximal fold induction [6, 10]
0.4 | 96 | 98 | 1 | > 10000 | 0.000175 | 62 | 22 | 3.4 | 94 | 2 | – | – | – | O=C1CC[C@H](N2Cc3cc(C[C@H]4CCCC[C@@H]4NC4CCC(F)(F)CC4)ccc3C2=O)C(=O)N1 (single isomer, unassigned) [Example 328] | 2.7 | ≥ 1.9
2 | 95 | 94 | 1 | > 10000 | 0.000158 | 29 | 33 | 3.5 | 96 | 3 | faster degradation of IKZF2 | more potent | – | O=C1CCC(N2Cc3cc(C[C@H]4CCCC[C@@H]4NC4CCC(F)(F)CC4)ccc3C2=O)C(=O)N1 (stereo partly drawn) [Example 46, 3-(5-(((1R,2S)-2-((4,4-difluorocyclohexyl)amino)cyclohexyl)methyl)-1-oxoisoindolin-2-yl)piperidine-2,6-dione] | 2.7 | ≥ 1.9
1.4 | 90 | – | 4 | > 10000 | 9.44e-05 | 26 | 92 | 1.9 | 96 | 5 | – | – | 98 | O=C1CCC(N2Cc3c(ccc(C[C@H]4OCCC[C@@H]4NC4CCC(C(F)F)CC4)c3F)C2=O)C(=O)N1 (single isomer, unassigned) [Example 283] | 2.1 | ≥ 1.9
